Entries after “also recorded” stand apart in the source; their conditions may differ.
How the values were obtained:
[1] = test system: mushroom tyrosinase; assay: Mushroom tyrosinase DO activity inhibition (dopachrome formation at 475 nm, L-DOPA substrate); format: biochemical; details: LCAME 0.050 μM
Procedure: (§1) The inhibition properties of LCAME were preliminarily investigated on mushroom tyrosinase by spectrophotometric monitoring of dopachrome formation, a method which is routinely used for evaluation of the activity of potential tyrosinase inhibitors. L-DOPA was used as the substrate to test DO activity while L-tyrosine was used to test TH activity. LCAME was incubated in 50 mM phosphate buffer in the presence of mushroom tyrosinase (20 U/mL) at room temperature. After 10 min, L-DOPA or L-tyrosine (1 mM final concentration) were added and the absorbance at 475 nm was measured at different times over 10 min. For comparative purposes the effects of CAME were evaluated as well. Stock methanolic solutions of LCAME or CAME, ranging in concentration from 0.02 to 20 mM concentration were prepared dissolving a proper amount of the compound of interest in methanol. 100 μL of these solutions were added to 2 mL of 50 mM phosphate buffer at pH 6.8 (final concentrations range: 0.001–1 mM), in the presence or in the absence of 20 U/mL mushroom tyrosinase. After 10 min incubation at room temperature, 20 μL of a 100 mM solution of L-DOPA or L-tyrosine in 0.6 M HCl, were added (final concentration: 1 mM). Spectrophotometric analysis was performed by measuring the absorbance at 475 nm for 10 min at 2 min intervals. In control experiments, the reaction was run in the absence of LCAME. When required, the experiment was performed as above but adding L-DOP A soon after the addition of LCAME (0.050 μM). In separate experiments, the assay was run as above with LCAME or CAME at 100 μM, in the presence or absence of L-DOPA, and after 10 min the mixture was analyzed by HPLC.

[2] = molecular target: mushroom tyrosinase; assay: Mushroom tyrosinase TH activity inhibition (dopachrome formation at 475 nm, L-tyrosine substrate); format: biochemical; details: 10 min pre-incubation, L-tyrosine 1 mM, tyrosinase 20 U/mL, pH 6.8
Procedure: as §1, with “After 10 min incubation at room temperature, 20 μL of a 100 mM solution of L-DOPA or L-tyrosine in 0.6 M HCl, were added (final concentration: 1 mM).” left out, “In control experiments, the reaction was run in the absence of LCAME. When required, the experiment was performed as above but adding L-DOP A soon after the addition of LCAME (0.050 μM).” left out

[3] = test system: T1, human tyrosinase; assay: Substrate test with HBL cell lysates and MBTH (absorbance at 490 nm); format: biochemical; details: different concentrations, over 1 h
T1 construct: The oxidation of L-DOPA by cell-free HBL cell extracts was monitored spectrophotometrically at 490 nm; endogenous in cells; host or cells: HBL human melanoma cells (detergent-solubilized cell extract)

[4] = test system: T2, human tyrosinase; assay: TH activity of human tyrosinase; format: biochemical; details: compared with DO activity
T2 construct: endogenous in cells

[5] = test system: HBL cells; assay: MTT viability assay; format: cell-based, human; details: 25 or 50 μM, 24 h
Procedure: The effect of the inhibitors on cell viability was evaluated by phase contrast microscopy and by means of the 3-(4,5-dimethyl-2-thiazolyl)-2,5-diphenyl-2H-tetrazolium bromide (MTT) assay. HBL cells were treated with the compounds (25 or 50 μM) for 24 h. At the end of the incubation period, phase contrast images were taken and the MTT assay was performed to test the cytotoxicity of each compound.
Figure 4 Effect of caffeic acid derivatives on the viability of HBL cells. Cells were incubated for 24 h with the inhibitors at 25 or 50 µM. (a) Phase contrast microscopy images. Representative images are shown (n = 8) Bar size: 50 μm. (b) MTT viability assay. Cells were grown in 96-well plates to ~80% confluence in the presence or absence of the indicated compounds. After 24 h, MTT was added (1 mg/mL final concentration) and maintained in the culture media for 4 h. Cells were PBS-washed twice and solubilized in DMSO. Absorbance at 562 nm was measured and represented as a percentage of the control value. The mean ± SEM of 8 independent experiments is shown. **** p < 0.0001.
Cell viability was measured by the MTT assay. HBL cells were seeded into the wells of a 96-wells plate at a density of 10,000 cells in 200 μL cell culture media. The seeded cells were incubated for 18 h at 37 °C, then treated with the compounds (25 or 50 μM) for 24 h or left untreated. At the end of the incubation period, images were taken and the MTT assay was performed to test the cytotoxicity of the different caffeic acid derivatives.

[6] = test system: tyrosinase; assay: Tyrosinase expression by Western blot (αPEP7), with or without NDP-MSH; format: cell-based, human
Procedure: Control HBL cells or cells grown in the presence of CAME (25 µM) or LCAME (25 or 50 µM) were stimulated for 48 h with a potent analogue of αMSH ([Nle^4,D-Phe^7]-α-MSH (NDP-MSH), 10^−7 M). Use of the 50 μM concentration of CAME was avoided since this concentration was somewhat cytotoxic as shown above. Expression of tyrosinase was then evaluated by Western blot using a specific antibody directed against tyrosinase (αPEP7). […] However, other mechanisms such as interference with activation and/or functional coupling of the melanocortin 1 receptor responsible for αMSH actions cannot be ruled out and a complete study of these possibilities is beyond the scope of this work. Accordingly, interference of LCAME with MITF expression or activity remains speculative at this stage. In any case, this preliminary observation deserves confirmation using cultured normal human melanocytes and further mechanistic analysis, as it may further support the potential use of LCAME as a skin depigmenting agent. Indeed, LCAME may act at two different levels, on one hand by inhibiting preexisting tyrosinase by a competitive mechanism, and on the other hand by interfering with αMSH-dependent induction of tyrosinase expression.
Figure 5 Effect on tyrosinase expression of CAME (25 µM) and LCAME (25 and 50 µM). HBL melanoma cells were incubated with or without the indicated compounds and stimulated with NDP-MSH (10^−7 M). After 48 h of treatment, tyrosinase levels were compared by Western blotting, performed as described in Materials and Methods. […] For each experimental condition, the fold-increase of tyrosinase abundance upon NDP-MSH treatment relative to the corresponding control was determined by densitometric analysis (ImageJ software) and is shown below the figure.
After protein separation by SDS-PAGE, they were transferred from the gel to the membrane and immunochemical detection with anti-PEP7 was performed as previously described. Briefly, the filters were blocked for 1 h in 2% bovine serum albumin in 1% Tween 20 PBS and incubated overnight at 4 °C with primary antibodies (1:4000 dilution). The filters were washed and further incubated with peroxidase-labeled mouse anti-rabbit IgG (1:5000 dilution). Staining and detection were done with ECL Plus Western Blotting Detection System chemiluminescent substrate (Thermo Fisher Scientific, Waltham, MA, USA). Images were acquired in a Fusion Solo.6S system (Vilber-Lourmat, Marne La Vallée, France). Signal intensities were estimated with ImageJ (National Institutes of Health, Bethesda, […], USA) in independent blots, and normalized with the corresponding loading controls (obtained by staining the membranes with an anti-ERK2 antibody).

- inhibition of DO activity ([1]; 10 min pre-incubation): 50 ± 2%
- inhibition of DO activity ([1]; L-DOPA added immediately after LCAME (no pre-incubation)): 42 ± 1%
- IC50 [2]: 830 ± 90 nM
- effect on TH activity of human tyrosinase [4]: weaker; also recorded: much smaller
SMILES: COC(=O)/C=C/c1ccc(O)c(O)c1SCCC(S)CCCCC(=O)O (centres unmarked) [LCAME, 2-S-lipoylcaffeic acid methyl ester]
- change in the absorbance at 490 nm (substrate of human tyrosinase) [3]: did not induce any change
- cytotoxicity (MTT) [5]: nontoxic; also recorded: not cytotoxic
- NDP-MSH-mediated stimulation of tyrosinase expression ([6]; 25 or 50 µM, NDP-MSH 10^−7 M, 48 h): apparently blocked
- basal tyrosinase expression ([6]; HBL cells, CAME 25 µM or LCAME 25 or 50 µM, Western blot): No alteration; also recorded: No significant changes

Reference: paper PMC6121902, “Conjugation with Dihydrolipoic Acid Imparts Caffeic Acid Ester Potent Inhibitory Effect on Dopa Oxidase Activity of Human Tyrosinase” (International Journal of Molecular Sciences, 2018)
